The data set has as its system CCRIS mutagenicity, Ames/micronucleus/aberration tests. Kind of data set: CCRIS mutagenicity studies.
Setting [1] is: Test System: AMES SALMONELLA TYPHIMURIUM, Strain/Indicator: TA98, Metabolic Activation: NONE, Method: STANDARD PLATE.
Setting [2] is: Test System: AMES SALMONELLA TYPHIMURIUM, Strain/Indicator: TA100, Metabolic Activation: NONE, Method: STANDARD PLATE.
Setting [3] is: Test System: AMES SALMONELLA TYPHIMURIUM, Strain/Indicator: TA1535, Metabolic Activation: NONE, Method: STANDARD PLATE.
Setting [4] is: Test System: AMES SALMONELLA TYPHIMURIUM, Strain/Indicator: TA1537, Metabolic Activation: NONE, Method: STANDARD PLATE.
[5] abbreviates: Test System: AMES SALMONELLA TYPHIMURIUM, Strain/Indicator: TA100, Metabolic Activation: RAT, LIVER, S-9, AROCLOR 1254, Method: STANDARD PLATE.

SMILES strings stand for the structures. Activity calls are given as the source filed them. How the calls were made is not given here.

As for `CCCCCCCC/C=C\CCCCCCCC(=O)O`, the mutagenic call was “inactive; negative” (Test System: AMES SALMONELLA TYPHIMURIUM, Strain/Indicator: TA97, Metabolic Activation: HAMSTER, LIVER, S-9, AROCLOR 1254 (10 OR 30%), Method: PREINCUBATION); “inactive; negative” (Test System: AMES SALMONELLA TYPHIMURIUM, Strain/Indicator: TA97, Metabolic Activation: NONE, Method: PREINCUBATION); “inactive; negative” (Test System: AMES SALMONELLA TYPHIMURIUM, Strain/Indicator: TA97, Metabolic Activation: RAT, LIVER, S-9, AROCLOR 1254 (10 OR 30%), Method: PREINCUBATION); “inactive; negative” (Test System: AMES SALMONELLA TYPHIMURIUM, Strain/Indicator: TA98, Metabolic Activation: HAMSTER, LIVER, S-9, AROCLOR 1254 (10 OR 30%), Method: PREINCUBATION); “inactive; negative” (Test System: AMES SALMONELLA TYPHIMURIUM, Strain/Indicator: TA98, Metabolic Activation: NONE, Method: PREINCUBATION); “inactive; negative” under setting [1]. For the same molecule, the mutagenic call reads like this: (Test System: AMES SALMONELLA TYPHIMURIUM, Strain/Indicator: TA98, Metabolic Activation: RAT, LIVER, S-9, AROCLOR 1254 (10 OR 30%), Method: PREINCUBATION) “inactive; negative”; (Test System: AMES SALMONELLA TYPHIMURIUM, Strain/Indicator: TA98, Metabolic Activation: RAT, LIVER, S-9, KC 500, Method: PREINCUBATION) “inactive; negative”; (Test System: AMES SALMONELLA TYPHIMURIUM, Strain/Indicator: TA98, Metabolic Activation: S-9, PHENOBARBITAL, Method: STANDARD PLATE) “inactive; negative”; (Test System: AMES SALMONELLA TYPHIMURIUM, Strain/Indicator: TA100, Metabolic Activation: HAMSTER, LIVER, S-9, AROCLOR 1254 (10 OR 30%), Method: PREINCUBATION) “inactive; negative”; (Test System: AMES SALMONELLA TYPHIMURIUM, Strain/Indicator: TA100, Metabolic Activation: NONE, Method: PREINCUBATION) “inactive; negative”; under setting [2], “inactive; negative”. Further, the mutagenic call reads like this: (Test System: AMES SALMONELLA TYPHIMURIUM, Strain/Indicator: TA100, Metabolic Activation: RAT, LIVER, S-9, AROCLOR 1254 (10 OR 30%), Method: PREINCUBATION) “inactive; negative”; (Test System: AMES SALMONELLA TYPHIMURIUM, Strain/Indicator: TA100, Metabolic Activation: RAT, LIVER, S-9, KC 500, Method: PREINCUBATION) “inactive; negative”; (Test System: AMES SALMONELLA TYPHIMURIUM, Strain/Indicator: TA100, Metabolic Activation: S-9, PHENOBARBITAL, Method: STANDARD PLATE) “inactive; negative”; (Test System: AMES SALMONELLA TYPHIMURIUM, Strain/Indicator: TA1535, Metabolic Activation: HAMSTER, LIVER, S-9, AROCLOR 1254 (10 OR 30%), Method: PREINCUBATION) “inactive; negative”; (Test System: AMES SALMONELLA TYPHIMURIUM, Strain/Indicator: TA1535, Metabolic Activation: NONE, Method: PREINCUBATION) “inactive; negative”; under setting [3], “inactive; negative”. Further, the mutagenic call was “inactive; negative” (Test System: AMES SALMONELLA TYPHIMURIUM, Strain/Indicator: TA1535, Metabolic Activation: RAT, LIVER, S-9, AROCLOR 1254 (10 OR 30%), Method: PREINCUBATION); “inactive; negative” (Test System: AMES SALMONELLA TYPHIMURIUM, Strain/Indicator: TA1535, Metabolic Activation: RAT, LIVER, S-9, KC 500, Method: PREINCUBATION); “inactive; negative” (Test System: AMES SALMONELLA TYPHIMURIUM, Strain/Indicator: TA1535, Metabolic Activation: S-9, PHENOBARBITAL, Method: STANDARD PLATE); “inactive; negative” (Test System: AMES SALMONELLA TYPHIMURIUM, Strain/Indicator: TA1537, Metabolic Activation: NONE, Method: PREINCUBATION); “inactive; negative” under setting [4]; “inactive; negative” (Test System: AMES SALMONELLA TYPHIMURIUM, Strain/Indicator: TA1537, Metabolic Activation: RAT, LIVER, S-9, KC 500, Method: PREINCUBATION). Besides, the mutagenic call (Test System: AMES SALMONELLA TYPHIMURIUM, Strain/Indicator: TA1537, Metabolic Activation: S-9, PHENOBARBITAL, Method: STANDARD PLATE) is “inactive; negative”; the mutagenic call (Test System: AMES SALMONELLA TYPHIMURIUM, Strain/Indicator: TA1538, Metabolic Activation: NONE, Method: PREINCUBATION) is “inactive; negative”; the mutagenic call (Test System: AMES SALMONELLA TYPHIMURIUM, Strain/Indicator: TA1538, Metabolic Activation: RAT, LIVER, S-9, KC 500, Method: PREINCUBATION) was “inactive; negative”; the mutagenic call (Test System: E. COLI, Strain/Indicator: WP2 UVRA, Metabolic Activation: NONE, Method: PREINCUBATION) was “inactive; negative”; the mutagenic call (Test System: E. COLI, Strain/Indicator: WP2 UVRA, Metabolic Activation: NONE, Method: STANDARD PLATE) is “inactive; negative”; the mutagenic call (Test System: E. COLI, Strain/Indicator: WP2 UVRA, Metabolic Activation: RAT, LIVER, S-9, KC 500, Method: PREINCUBATION) is “inactive; negative”. Where the note is “Test System: E. COLI, Strain/Indicator: WP2 UVRA, Metabolic Activation: S-9, PHENOBARBITAL, Method: STANDARD PLATE”, the mutagenic call is “inactive; negative”.
For the molecule `OCc1ccc(C(F)(F)F)cc1`, under setting [2], the mutagenic call is “inactive; negative”.
In the case of `Cc1ccc2c3c1ccc1cccc(c13)C2`, the mutagenic call under setting [5] was “active; positive”.
Regarding `O=[N+]([O-])c1cccc(OS(=O)(=O)c2cccc3cccnc23)c1`, the mutagenic call is “inactive; negative” under setting [1]; “active; positive” (Test System: AMES SALMONELLA TYPHIMURIUM, Strain/Indicator: TA98, Metabolic Activation: RAT, LIVER, S-9, AROCLOR 1254, Method: STANDARD PLATE); “inactive; negative” under setting [2]; “active; positive” under setting [5]; “inactive; negative” under setting [3]; “inactive; negative” (Test System: AMES SALMONELLA TYPHIMURIUM, Strain/Indicator: TA1535, Metabolic Activation: RAT, LIVER, S-9, AROCLOR 1254, Method: STANDARD PLATE). The mutagenic call under setting [4] is “inactive; negative” and the mutagenic call (Test System: AMES SALMONELLA TYPHIMURIUM, Strain/Indicator: TA1537, Metabolic Activation: RAT, LIVER, S-9, AROCLOR 1254, Method: STANDARD PLATE) was “inactive; negative”.
Consider `CC(=O)Nc1ccc(NC(C)=O)cc1`, for which the mutagenic call is “inactive; negative” (Test System: Ames Salmonella typhimurium, Strain/Indicator: TA98, Metabolic Activation: None, Method: Standard Plate); “inactive; negative” (Test System: Ames Salmonella typhimurium, Strain/Indicator: TA100, Metabolic Activation: None, Method: Standard Plate); “inactive; negative” (Test System: Ames Salmonella typhimurium, Strain/Indicator: TA102, Metabolic Activation: None, Method: Standard Plate); “inactive; negative” (Test System: Ames Salmonella typhimurium, Strain/Indicator: TA1535, Metabolic Activation: None, Method: Standard Plate); “inactive; negative” (Test System: Ames Salmonella typhimurium, Strain/Indicator: TA1537, Metabolic Activation: None, Method: Standard Plate).
For the molecule `CC[C@H](c1ccc(O)cc1)[C@@H](CC)c1ccc(O)cc1`, the mutagenic call runs as follows: (End Point: IN VITRO CHROMOSOMAL ABERRATIONS, Test System: CHINESE HAMSTER CELL DON (22;XY), Metabolic Activation: NONE) “active; positive (ploidy changes)”; under setting [1], “inactive; negative”; (Test System: AMES SALMONELLA TYPHIMURIUM, Strain/Indicator: TA98, Metabolic Activation: RAT, LIVER, S-9, Method: STANDARD PLATE) “inactive; negative”; under setting [2], “inactive; negative”; (Test System: AMES SALMONELLA TYPHIMURIUM, Strain/Indicator: TA100, Metabolic Activation: RAT, LIVER, S-9, Method: STANDARD PLATE) “inactive; negative”; under setting [3], “inactive; negative; toxicity at 50 ug/plate”. Moreover, the mutagenic call by setting is: (Test System: AMES SALMONELLA TYPHIMURIUM, Strain/Indicator: TA1535, Metabolic Activation: RAT, LIVER, S-9, Method: STANDARD PLATE) “inactive; negative; toxicity at 100 ug/plate”; under setting [4], “inactive; negative; toxicity at 100 ug/plate”; (Test System: AMES SALMONELLA TYPHIMURIUM, Strain/Indicator: TA1537, Metabolic Activation: RAT, LIVER, S-9, Method: STANDARD PLATE) “inactive; negative”; (Test System: AMES SALMONELLA TYPHIMURIUM, Strain/Indicator: TA1538, Metabolic Activation: NONE, Method: STANDARD PLATE) “inactive; negative”; (Test System: AMES SALMONELLA TYPHIMURIUM, Strain/Indicator: TA1538, Metabolic Activation: RAT, LIVER, S-9, Method: STANDARD PLATE) “inactive; negative; toxicity at 100 ug/plate”; (Test System: UDS RAT HEPATOCYTES, Strain/Indicator: THY INCORP (18-20 HR), Metabolic Activation: NONE, Method: LIQUID SCINTILLATION COUNTING) “inactive; negative”.

These data come from PubChem BioAssay AID1259407 (Chemical Carcinogenesis Research Information System (CCRIS), 2018).
